Laboratory results published in the NIST ThermoML archive (doi:10.1021/je0201166).
Numbers after ± are expanded uncertainties.

Conditions: Liquid; for mass density: 298.15 K, 101.33 kPa

SMILES | mass density [kg/m3] | Normal boiling temperature [°C]
C1COCO1 [1,3-dioxolane] | 1058.6 ± 5 | 75.42 ± 0.1
CO [methanol] | 786.7 ± 5 | 64.54 ± 0.1
O [water] | 997.2 ± 5 | 99.98 ± 0.1
